According to patent publication US20230233584A1, “EXTENDED RELEASE 5-HT RECEPTOR AGONISTS FOR NEUROLOGICAL CONDITIONS” (Diamond Therapeutics Inc., priority 2020, published 2023):
Read-outs that look alike come from different tables or passages of the source.

Columns and labels:
[1] = Psilocybin and psilocin plasma pharmacokinetics after s.c. psilocybin; type: in vivo, rats; details: for Cmax / concentration at 0.25 h / concentration at 0.5 h / concentration at 0.75 h / concentration at 1 h / concentration at 2 h / concentration at 4 h / concentration at 6 h / Tmax / AUC(0-inf) / AUC(0-t) / half-life / MRT inf: rat, rats; for Cmax / concentration at 0.25 h / concentration at 0.5 h / concentration at 0.75 h / concentration at 1 h / concentration at 2 h / concentration at 4 h / concentration at 6 h: plasma; for AUC(0-inf): read-out: AUC0-inf, Mean; for AUC(0-t): read-out: AUC0-tlast, Mean; for half-life: read-out: Apparent t1/2, Mean (converted); for MRT inf: read-out: MRT0-inf, Mean
Procedure: Psilocybin doses of 0.05, 0.1, 1, 10 mg/kg were used to evaluate psilocybin and psilocin PK in rats. For the doses of psilocybin that positively effect behaviors in the low performers in the PR and 5CSRTT, e.g., 0.05-0.1 mg/kg, the corresponding Cm. of psilocin was ˜7±2 ng/ml at 30 minutes for 0.05 mg/kg, and at a dose of 0.1 mg/kg, the Cm. of psilocin was determined to be ˜12±3 ng/ml at 30 minutes (FIG. 5).
Details of the plasma concentration studies are shown in Tables 1-8 (psilocybin) and 9-16 (psilocin). Values in italics are below the lower level of quantitation (BLQ, <1 ng/mL) but were included in calculations. Values in bold and underlined are considered to be outliers and were omitted from calculations. Measured dosing solution concentrations were 0.0460, 0.0967, 0.948 and 9.65 mg/mL for 0.05, 0.1, 1 and 10 […].

[2] = Minipump infusion of psilocybin over 12 days: plasma/blood exposure; type: in vivo, rats
Procedure: A dose of psilocybin, which is free from perceptual and behavioral side effects, was dosed in rats (N=24) continuously over a period of 12 days using an Alzet minipump implanted in rats of approximately 380-390 g body weight. The pump was primed to deliver psilocybin at 5 mg/kg/day pump concentration. The target plasma concentration was 10 ng/ml psilocin with actual plasma concentration 9.3+1.3 ng/ml over the 12 day study period.
Blood was collected from rats on days 4, 8 and 12 to measure levels of psilocybin and psilocin in Group B rats. Blood was collected via saphenous bleed at a standard timepoint which will not interfere with 5-choice testing. Psilocin blood levels were in the range of 8-10 ng/ml over days 4-12, while psilocybin blood levels were in the range of 2-5 ng/ml over days 4-12 (FIG. 7A), corresponding to 10 ng/mL psilocin. […] The present observations recorded for psilocybin/psilocin are occurring at exposure levels of psilocin ˜10 ng/ml (e.g., FIG. 5), likely resulting in a low level of CNS 5-HT2A receptor occupancy, and which is insufficient to elicit cardinal signs of 5-HT2A receptor activation such as WDS/BMC in rats (e.g., FIG. 1B).

[3] = subcutaneous, after psilocybin 0.05 mg/kg s.c.
[4] = subcutaneous, after psilocybin 0.1 mg/kg s.c.
[5] = subcutaneous, after psilocybin 1 mg/kg s.c.
[6] = subcutaneous, after psilocybin 10 mg/kg s.c.
[7] = sc, psilocin in plasma after psilocybin 0.05 mg/kg s.c.
[8] = sc, psilocin in plasma after psilocybin 0.1 mg/kg s.c.
[9] = sc, psilocin in plasma after psilocybin 1 mg/kg s.c.
[10] = sc, psilocin in plasma after psilocybin 10 mg/kg s.c.

CN(C)CCc1c[nH]c2cccc(O)c12 [psilocin, 4-hydroxy-N,N-dimethyltryptamine]
Plasma [psilocin] ([1]; Regimen 1, 0.05-0.1 mg/kg acute, increase in breakpoint under PR schedule (low performer subgroup)): ~5 to 12 ng/mL
Plasma [psilocin] ([1]; Regimen 2, 0.05-0.1 mg/kg acute, improvement in attention and response speed in 5-choice test (low performer subgroup)): ~5 to 12 ng/mL
Plasma [psilocin] ([1]; Regimen 3, 0.05-0.1 mg/kg acute, increase in PREM/PSV response in 10 s ITI 5-choice test (low impulsive subgroup)): ~5 to 12 ng/mL
Plasma [psilocin] ([1]; Regimen 5, ≥0.3 mg/kg acute, induction of overt 5-HT2A behaviors of WDS/BMC): ≥25 ng/mL
Cmax ([1]; sc, 0.05 mg/kg, psilocin in plasma after psilocybin 0.05 mg/kg s.c., read-out: Cmax, Mean): 7.14 ng/mL
Cmax ([1]; sc, 0.05 mg/kg, psilocybin 0.05 mg/kg, after 30 mins, read-out: Cmax psilocin): ~6 ng/mL
Cmax ([1]; sc, 0.1 mg/kg, psilocin in plasma after psilocybin 0.1 mg/kg s.c., read-out: Cmax, Mean): 11.7 ng/mL
Cmax ([1]; sc, 1 mg/kg, psilocin in plasma after psilocybin 1 mg/kg s.c., read-out: Cmax, Mean): 83.3 ng/mL
Cmax ([1]; sc, 10 mg/kg, psilocin in plasma after psilocybin 10 mg/kg s.c., read-out: Cmax, Mean): 1110 ng/mL
Cmax ([1]; subcutaneous, 0.05 mg/kg, psilocybin 0.05 mg/kg, after 30 mins, read-out: Cmax psilocin): ~7 ng/mL
Cmax ([1]; subcutaneous, 0.1 mg/kg, psilocybin 0.1 mg/kg, after 30 mins, read-out: Cmax psilocin): ~12 ng/mL
Cmax ([1]; subcutaneous, 1 mg/kg, psilocybin 1 mg/kg, after 30 mins, read-out: Cmax psilocin): ~83 ng/mL
Cmax ([1]; subcutaneous, 10 mg/kg, psilocybin 10 mg/kg, after 30 mins, read-out: Cmax psilocin): ~1110 ng/mL
concentration at 0.25 h [1, 3]: 3.76 ng/mL
concentration at 0.5 h [1, 3]: 5.68 ng/mL
concentration at 0.75 h [1, 3]: 3.11 ng/mL
concentration at 1 h [1, 3]: 5.91 ng/mL
concentration at 2 h [1, 3]: 2.23 ng/mL
concentration at 4 h [1, 3]: 0.49 ng/mL
concentration at 6 h [1, 3]: 0.136 ng/mL
concentration at 0.25 h [1, 4]: 9.35 ng/mL
concentration at 0.5 h [1, 4]: 12.3 ng/mL
concentration at 0.75 h [1, 4]: 7.73 ng/mL
concentration at 1 h [1, 4]: 5.7 ng/mL
concentration at 2 h [1, 4]: 2.78 ng/mL
concentration at 4 h [1, 4]: 0.535 ng/mL
concentration at 6 h [1, 4]: 0.215 ng/mL
concentration at 0.25 h [1, 5]: 74.5 ng/mL
concentration at 0.5 h [1, 5]: 76.6 ng/mL
concentration at 0.75 h [1, 5]: 70.3 ng/mL
concentration at 1 h [1, 5]: 69.9 ng/mL
concentration at 2 h [1, 5]: 29.7 ng/mL
concentration at 4 h [1, 5]: 5.5 ng/mL
concentration at 6 h [1, 5]: 1.34 ng/mL
concentration at 0.25 h [1, 6]: 704 ng/mL
concentration at 0.5 h [1, 6]: 898 ng/mL
concentration at 0.75 h [1, 6]: 1080 ng/mL
concentration at 1 h [1, 6]: 1070 ng/mL
concentration at 2 h [1, 6]: 713 ng/mL
concentration at 4 h [1, 6]: 269 ng/mL
concentration at 6 h [1, 6]: 132 ng/mL
Tmax [1, 7]: 36 min
AUC(0-inf) [1, 7]: 10.3 ng·h/mL
AUC(0-t) [1, 7]: 10.1 ng·h/mL
half-life [1, 7]: 60 min
MRT inf [1, 7]: 104 min
Tmax [1, 8]: 32.2 min
AUC(0-inf) [1, 8]: 15.7 ng·h/mL
AUC(0-t) [1, 8]: 12.5 ng·h/mL
half-life [1, 8]: 55.1 min
MRT inf [1, 8]: 85.2 min
Tmax [1, 9]: 34.3 min
AUC(0-inf) [1, 9]: 143 ng·h/mL
AUC(0-t) [1, 9]: 117 ng·h/mL
half-life [1, 9]: 52.7 min
MRT inf [1, 9]: 91.8 min
Tmax [1, 10]: 42.8 min
AUC(0-inf) [1, 10]: 3380 ng·h/mL
AUC(0-t) [1, 10]: 2280 ng·h/mL
half-life [1, 10]: 99 min
MRT inf [1, 10]: 160 min
Plasma [psilocin] ([2]; Regimen 4, mini-pump chronic, improvement in attention in 10 s ITI 5-choice test): ~10 ng/mL
actual plasma concentration of psilocin ([2]; psilocybin minipump 5 mg/kg/day, over the 12 day study period, rats): 9.3 ± 1.3 ng/mL
Psilocin blood levels ([2]; psilocybin minipump, days 4-12, rats): 8 to 10 ng/mL
